Measured values as given in US20110086809A1, “Enteral Administration Of Arginine-Glutamine Dipeptide To Support Retinal, Intestinal, Or Nervous System Development” (priority 2009, published 2011).

Experiments:
caspase-3 = experiment: Brain caspase-3 colorimetric activity assay in hyperoxia-exposed neonatal mice; type: in vivo, mouse; conditions: compared to hyperoxic mice; FIG. 4
Protocol: (§1) In the neonatal mouse model of oxygen-induced retinopathy, 7-day old mice are placed with their nursing dams in a 75% oxygen atmosphere for 5 days. Mouse pups receive twice a day gavage feedings of arginine-glutamine dipeptide or control solution (20 μL) starting on postnatal day 12 (P12) and continuing through postnatal day 17 (P17). In one experiment, different dosages of arginine-glutamine dipeptide (1.0, 2.5 and 5 g/kg·day as a hydrochloride salt, Bachem, Babendorf, Switzerland) are tested. In a second experiment, arginine-glutamine dipeptide (5 g/kg day) is given and a normoxia group is used as a control.
(§2) After the fifth day following return to normoxia (P17), the animals are euthanized by injection of a lethal dose of a combination of ketamine (70 mg/kg body weight) and xylazine (15 mg/kg body weight) followed by cervical dislocation.
Caspase-3 activity is determined using a Caspase-3 Colorimetric Activity Assay Kit (Chemicon International, Inc., Temecula, Calif.). The brain is homogenized with a Polytron homogenizer, and the homogenates are stored in aliquots at −80° C.

Bcl-2 = experiment: Brain Bcl-2 levels by immunoblotting in hyperoxia-exposed neonatal mice; type: in vivo; conditions: mouse brain, hyperoxic conditions, treated with dipeptide; FIG. 3
Protocol: as §1, §2
Bcl-2 levels are determined using standard immunoblotting techniques. The brain is homogenized with a Polytron homogenizer, and the homogenates are stored in aliquots at −80° C. Gel electrophoresis is performed using the BioRad electrophoresis system (Carlsbad, Calif.). […] Protein bands are quantified by densitometry.

[1] = test system: neonatal mouse model of oxygen-induced retinopathy; experiment: Neonatal mouse model of oxygen-induced retinopathy, pre-retinal nuclei count; type: in vivo; conditions: FIG. 1
Protocol: In the neonatal mouse model of oxygen-induced retinopathy, 7-day old mice are placed with their nursing dams in a 75% oxygen atmosphere for 5 days. Mouse pups receive twice a day gavage feedings of arginine-glutamine dipeptide or control solution (50 μL) starting on postnatal day 12 (P12) and continuing through postnatal day 17 (P17). Gavage feeds include a control (0.9% sodium chloride) and the test compounds and different doses of arginine-glutamine dipeptide (1.0, 2.5 and 5 g/kg·day). The daily dosage of the dipeptide is divided evenly between the two daily gavage feedings.
After the fifth day following return to normoxia (P17), the animals are euthanized by injection of a lethal dose of a combination of ketamine (70 mg/kg body weight) and xylazine (15 mg/kg body weight) followed by cervical dislocation. The eyes are removed and fixed in 4% paraformaldehyde, embedded in paraffin, and sectioned. Pre-retinal nuclei are counted by masked observers. Efficacy of treatment is calculated as the percent average nuclei per section in the eyes of arginine-glutamine dipeptide treated animals versus control animals.
Some of the eyes are taken for qualitative retinal flatmount analysis. For these mice, at the time of euthanasia, the mice are perfused with fluorescein isothiocyanate-labeled dextran to visualize the vasculature. […]

[2] = test system: intestinal injury induced by hyperoxia in a mouse model; experiment: Histological intestinal damage score in hyperoxia-exposed neonatal mice; type: in vivo; conditions: ileum histology, score 0 to 4+ (0=no damage, 4=severe damage); hyperoxic conditions plus dipeptide by gavage; hyperoxia alone 3.5; FIG. 2
Protocol: as §1, §2
Intestinal injury is evaluated using histological techniques. A portion of intestine from the ileum is fixed in 10% (w·v) neutral buffered formalin for 24 hours for light microscopy. The intestine is paraffin embedded, cut into 4 μm sections, mounted on glass slides, and stained with hematoxylin and eosin according to standard procedures. Histological analyses are performed using a damage scoring system from 0 to 4+ (0=no damage, 4=severe damage with mucosal sloughing) to determine the severity of the intestinal injury.

arginine-glutamine dipeptide
reduction in brain caspase-3 activity (caspase-3): 32%
increased Bcl-2 expression in brain (Bcl-2): 33%
dose/response of reduction of nuclei per section ([1]; dosages between 1 g/kg·day and 5 g/kg·day, highest effectiveness at 5 g/kg·day): highest level of effectiveness was shown at 5 g/kg·day
average number of nuclei per section in the eyes ([1]; neonatal mice exposed to hyperoxia (75% oxygen, 5 days), gavage twice a day P12-P17, 1, 2.5 and 5 g/kg·day, versus control (0.9% sodium chloride)): decreased at all levels of administration
average intestinal damage score [2]: 1.67
